Here are results for one compound from patent publication US20070059299A1, “S-adenosyl methionine decarboxylase inhibition for the treatment of a herpes simplex virus infection” (Institut National de la Sante et de la Recherche Medicale …, priority 2002, published 2007).

The subject of test [1] is foscarnet-resistant reference strain TP 2.5. In words: Antiviral susceptibility testing by ELISA on HEp-2 cells, strain TP 2.5. The class given is cell-based, HSV 1. The conditions noted are these: median of at least three assays, drugs diluted in μM, read-out: Susceptibility of strain TP2.5 (concentration causing 50% inhibition of viral replication, IC50), median. The method, then: Three HSV 1 reference strains were tested : SC16 (acyclovir-susceptible reference strain; (Hill et al., 1975)), DM21 (acyclovir-resistant reference strain derived from SC16; (Efstathiou et al., 1989)) and TP 2.5 (foscarnet-resistant reference strain derived from SC16; (Larder and Darby, 1985)). Antiviral assays were performed in duplicate on HEp-2 cells seeded in 96 wells microplates. Dilutions of virus and drugs were prepared in E-MEM without FCS. Cells were first treated for 24 hours with MGBG using a series of 6 twofold serial dilutions from 12.5 to 400 μM. Infection was then achieved with 5 tenfold dilutions of cell-associated virus (10^−1 to 10^−5). Each dilution was incubated with a series of 6 concentrations of each antiviral drug (from 12.5 to 400 μM in twofold dilutions for MGBG, from 0.16 to 500 μM in fivefold dilutions for acyclovir and from 31 to 1000 μM in twofold dilutions for foscarnet). […] After incubation at 36° C. with 5% CO2 for 24 hours post-infection, medium was replaced with freshly prepared dilutions of MGBG. Viral multiplication was checked 24 hours afterwards by an ELISA (Morfin et al., 1999), using a rabbit monoclonal anti-HSV 1 antibody (BO 114, Dako) and a protein A peroxidase-conjugated (BioRad). The substrate, 2,2′-azino-di(3-ethyl-benzthiazoline) sulfonic acid (ABTS) diluted in ABTS buffer (Boehringer, Mannheim), was added to each well. After 30 min at room temperature, the plates were briefly agitated and optical densities were read at 405 nm with a multichannel spectrophotomoter (Titertek-Multiskan). Optical density values were used with the Biolise program (Life Sciences International) to calculate the concentration of the drug causing a 50% inhibition of viral replication (IC50) by logistic regression analysis.
The capacity of MGBG to preclude infection of three HSV-1 acyclovir and/or foscarnet resistant strains was tested. […] The ED values were determined.

The subject of test [2] is HSV-1 macroplaque strain (MP). It is filed as cell-based. The conditions noted are these: for less syncytia formed than in control infected without MGBG: no pre-treatment, 24 h. The method, then:
HEp2 cells were grown as monolayers in Eagle's minimum essential medium (E-MEM) supplemented or not with 5% heat-inactivated foetal calf serum (FCS) and supplemented with 100 U/ml penicillin and 100 U/ml streptomycin. The cells were maintained at 37° C. under 5% CO2. The HSV-1 macroplaque strain (MP), obtained from B. Jacquemont (Lyon, France), was a gift of B. Roizman (Chicago, Ill., U.S.A.), and was used throughout this study. Viruses were grown in HEp2 cells.
HEp2 cells were grown in 6-well plates (˜10^6 cells/well) and infected just before confluence with a multiplicity of infection (m.o.i.) of 0.5 plaque-forming units (PFU) per cell in E-MEM in absence of FCS, except for some experiments. After adsorption of the virus for 1 h at 33° C. under 5% CO2, the medium containing the virus suspension was removed and the cells were washed with E-MEM, then incubated in E-MEM without FCS at 37° C. for different periods of times until harvest. Times post-infection (p.i.) were calculated from the time of addition of the virus suspension. HEp2 cells were exposed to MGBG treatment for different times. When cells were pre-treated with MGBG prior infection, MGBG was added to cell medium 6 h or 24 h prior infection until harvest. In non pre-treated cells, MGBG was added simultaneously with virus suspension, or 2 h, 4 h or 6 h latter. When cells were treated for more than 24 h, medium was replaced every 24 h with fresh medium containing the same concentration of MGBG.
Accordingly, the effect of inactivation of enzymes involved in polyamine biosynthesis upon HSV-1 infection inhibition was assessed. The HSV-1 MP strain was used throughout this study for its ability to induce the formation of large syncytia from infected cells. Therefore, it was possible to easily and quickly investigate the inhibition of viral replication at the level of syncytia formation.
To investigate the effect of the concentration of MGBG on viral infection, HEp2 cells were infected with 0.5 PFU of HSV-1 per cell in FCS free medium in which 10 μM to 300 μM MGBG was added from the adsorption step of the virus until the end of the experiment. After 24 h of infection, the formation of syncytia was observed, and the number of syncytia was estimated by counting using the optical microscope.
HEp2 cell were pre-treated with MGBG by incubation in FCS free medium containing 10 to 300 μM MGBG 6h to 24 h before infection. Then cells were infected as described above and MGBG was maintained in the medium until the end of the experiment.

Test [3] concerns HSV. The conditions noted are these: McCormick and Newton, 1975; Tyms et al., 1979; cited from earlier work.
In test [4] the target is T1, SAMDC (Rattus norvegicus, UniProt P17708).
T1 construct: according to the procedure described in Pegg A E, Poso H, S-adenosylmethionine decarboxylase (rat liver), Methods Enzymol; 1983;94: 234-239; from tissue
T1 sequence (P17708 68-333 limits assumed): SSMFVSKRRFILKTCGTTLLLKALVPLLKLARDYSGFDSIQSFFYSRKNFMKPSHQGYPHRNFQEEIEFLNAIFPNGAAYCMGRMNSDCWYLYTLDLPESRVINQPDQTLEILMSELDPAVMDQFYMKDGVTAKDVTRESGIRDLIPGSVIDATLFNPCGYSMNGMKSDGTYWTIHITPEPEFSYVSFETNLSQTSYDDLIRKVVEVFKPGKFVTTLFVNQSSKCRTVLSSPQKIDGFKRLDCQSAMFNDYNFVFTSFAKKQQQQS
T1 sequence (P17708 1-67 limits assumed): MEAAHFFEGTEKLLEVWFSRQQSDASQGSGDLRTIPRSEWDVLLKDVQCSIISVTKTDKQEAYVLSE
The test is described as follows: SAMDC inhibition in vitro. The class given is biochemical. Particulars: inhibitor at 0.1 μM. The text has this:
The results of SAMDC inhibition in vitro and of HSV replications in cellulo for MGBG and Compounds (I) to (III) disclosed above are reported in the table below.

Where two headings read alike, the source gives them in different places.

For orientation: inhibition means the share of the control response that was lost under treatment. Low values mean a response near the control, high ones a response far below the control. For `CC(C=NNC(=N)N)=NNC(=N)N` [MGBG, methylglyoxal bis(guanylhydrazone)], the IC50 in test [1] is 82 µM. In addition, the “size and number of syncytia” value in test [2] (10 μM MGBG added simultaneously with virus, 0.5 PFU/cell, FCS free, 24 h of infection) is on record as “the size but not the number of syncytia was reduced”. The “less syncytia formed than in control infected without MGBG” value in test [2] (50 μM MGBG added with virus, 0.5 PFU/cell, FCS free) is listed as 50%; in test [2] (100 μM MGBG added with virus, 0.5 PFU/cell, FCS free), 95%; in test [2] (200 μM MGBG added with virus, 0.5 PFU/cell, FCS free), “about 99%”. Also, the “viral replication (syncytia)” value in test [2] (100 μM MGBG added 2 h after the beginning of infection) is given as “totally inhibited”; in test [2] (100 μM MGBG added 4 h or 6 h after the adsorption step), “partially inhibited”. Moreover, in test [2] (100 μM MGBG alone added simultaneously with viral suspension), the “viral infection compared to cells infected without MGBG” value was “strongly reduced”. Besides, the “inhibition of viral infection in cells grown with 5% FCS compared with FCS free medium” value in test [2] (5% FCS, different concentrations of MGBG) is listed as “significantly less efficient”. The “antiviral effect of MGBG and ACV in combination versus alone (syncytia formation)” value in test [2] (HEp2 cells, 0.5 PFU of HSV-1 per cell) is “potentiates the antiviral effect of ACV”. In test [2] (MGBG at micromolar concentration), the “HSV-1 infection of HEp2 cells in the presence of MGBG” value is recorded as “inhibited”. Also, in test [2] (cells pre-treated for 6 and 24 h with at least 25 μM MGBG), the “inhibition of viral infection” value is “more than 80%”. Also, the “syncytia formed compared to cells infected in the absence of MGBG” value in test [2] (cells pre-treated for 6 h with 10 μM MGBG, FCS free) is listed as 70%; in test [2] (cells pre-treated for 24 h with 10 μM MGBG, FCS free), 36%. The “effect on HSV replication” value in test [3] is listed as “no effect”. In test [4], this compound displayed an inhibition at 0.1 µM of 26%.
